Reference: patent publication US10231958B2, “Methods and compositions for enhancing chemotherapy” (THE BOARD OF REGENTS OF THE UNIVERSITY OF TEXAS SYSTEM, priority 2015, dated 2019)
“Also recorded” adds a separate entry of the source.

What was measured:
[1] = system: NFκB-responsive firefly luciferase construct in MDA-MB231 cells; assay: NFκB gene reporter assay; assay type: cell-based, human
Protocol: (§1) Prior to transfection, cells were plated in 96-well plates to 80-90% confluence (100 μL antibiotic free-medium) after 24 h. When used, siRNA were incubated by reverse transfection during cells seeding. […] A mixture of non-inducible firefly luciferase construct and constitutively expressing Renilla luciferase construct (40:1) were used as negative controls. Approximately 24 h post-transfection, the medium was changed and the cells were treated for 12 h with alkylating agents (with/out 6 h pre-treatments). At the end of this period, medium was changed to drug-free fresh medium (to minimize the effect of alkylating toxicity on promoters activity) and cells were kept for an additional 12 h.

[2] = system: AP1-responsive firefly luciferase construct in MDA-MB231 cells; assay: AP-1 gene reporter assay; assay type: cell-based, human
Protocol: as §1

[3] = system: MAPKs (ERK1/2, JNK1/2 and p38) and ATF2; assay: Western blot of MAPK phosphorylation; assay type: cell-based; details: 8 h
Protocol: Western blot. Protein lysates were prepared using RIPA buffer containing 5% sodium deoxycholate, 0.1% SDS, 0.1% Igepal in PBS with a cocktail of protease and phosphatase inhibitors (1 mM PMSF, 1 mM sodium orthovanadate, 1 mM NaF, and 30 μL/mL aprotinin (Sigma-Aldrich, USA)) and clarified by centrifugation. Protein concentration was determined using Bradford Protein Assay Reagent (Biorad, Hercules, Calif.). Equal amounts of protein were resolved using 8-12% SDS polyacrylamide gel, transferred onto nitrocellulose membranes (Hybond-ECL, GE Healthcare Lifesciences, Piscataway, N.J.) and detected using Lumiglo system (Cell Signaling Technology, Calif.) and x-ray films. Primary antibodies included COX-2 (#4842), NRF2 (D1C9), p-JNK1/2 (Thr183/Tyr185, #4671), p-p38 (Thr180/Tyr182, #9216), p-ERK1/2 (Thr202/Tyr204, #9101), BiP/GRP78 (C50B12), IRE1a (14C10), CHOP (L63F7) and PERK (D11A8) from Cell Signaling Technology; p-IRE1a (Ser724; NB100-2323) from Novus Biologicals; GCLC (Ab41463), beta-actin (ab8227) and ATF6 (Ab37149) from Abcam; p-PERK (Thr 981, sc-32577) and ATF3 (C19) were purchased from Santa Cruz. All primary antibodies were used at 1:1000 dilutions and secondary antibodies were 1:3000 in TBS-T with 5% BSA.

IL8, MMP1, MMP3 and PGE2 = assay: ELISA of inflammatory mediators in culture medium; assay type: cell-based, human
Protocol: Quantification of MMP1 and MMP3 content in culture medium was assessed using RayBio-MMP3 and RayBio-MMP1 Elisa Kit (RayBiotech, Inc); IL8 was analyzed by Human IL-8 Elisa kit (Pierce Biotechnology). The levels of prostaglandin E2 (PGE2) were determined using the Prostaglandin E2 EIA Kit Monoclonal (Cayman Chemical Company). Culture media were diluted to fit within the standard curves. For conditioned media (CM) preparation for invasion and in vitro angiogenesis experiments, 12-well plated cells were treated with MMS (or MMS plus inhibitors) for 8 h in the presence of 10% FBS, twice washed with HBSS, and incubated with 700 μL drug/serum-free fresh medium for additional 12 h. Thereafter, the conditioned fresh medium was collected and directly used for migration and invasion experiments in order to reduce freezing associated loss of activity.

[4] = system: primary MEFs or breast cancer cells; assay: Cell viability of MEFs and breast cancer cells with kinase inhibitors; assay type: cell-based, mouse, human
Protocol: The D. melanogaster embryonic cell line Kc167 was grown in Schneider medium (Invitrogen, Carlsbad, Calif.) supplemented with 10% heat-inactivated (56° C./30 min) fetal bovine serum (FBS), penicillin and streptomycin at 22° C. in a humidified incubator. Primary MEFs were obtained by harvesting 14.5-day C57BL/6J embryos as previously described (Ravi et al., 2009, PLoS Genet 5, e1000527). Briefly, fetal liver and head were removed and the remainder of the embryo was mechanically disaggregated in plating medium. A suspension of single-cells was plated in DMEM (plus 10% FBS, 100 U/mL penicillin and 100 μg/mL streptomycin). MEFs were grown for two passages before freezing aliquots. Aliquots were taken and expanded as needed for each experiment. MDA-MB231, SkBr3 and MCF-7 breast cancer cells lines were obtained from ATCC and grown in DMEM supplemented with 10% inactivated FBS plus antibiotics in a 37° C. humidified incubator at […] atmosphere. Cells were kept and treated in the exponential phase of growing (60-70% confluence). Pharmaceuticals Sorafenib (Santa Cruz Biotechnology), UO126, SP600125, SB239063, celecoxib, buthionine sulfoximine (BSO), cycloheximide (CHX), actinomycin D and BAY117082 (BAY), or antioxidants as N-Acetyl-Cysteine (NAC), glutathione ethyl-ester (GSH-E) and Trolox (all from Sigma-Aldrich, USA) were pre-incubated with cells for 6 to 8 h before treatments with MMS, temozolomide, CDDP (from Sigma-Aldrich, USA) or 4-hydroperoxycyclophosphamide (4-HC; from US Biological). DMSO concentrations were kept to a maximum of 0.1% for all experiments.
Cell viability was assessed using CellTiter-Glo Luminescent Viability assay (Promega) in 384 or 96-well plates white-border clear-bottom plated cells. For caspase-3/7 activity, Caspase-Glo 3/7 Assay kits were used (Promega). For caspase assays, the cells were seeded in 96-well plates and assayed directly after treatments. […] LDH release into culture medium was quantified by Cytotox-96 Non-Radioactive assay kit in agreement with instructions (Promega).

[5] = system: Intracellular ROS production; assay: Real-time ROS production (DCF assay); assay type: cell-based; details: dose-independent, even at highly toxic MMS 80 μg/mL
Protocol: Intracellular ROS production was detected using DCFH-DA probe (Sigma) (Zanotto-Filho et al., 2010, Cancer Lett 288, 192-203). This reagent enters the cells and reacts predominantly with highly oxidizing species of ROS, such as hydroxyl radicals, hydroperoxides, and peroxynitrite, thus producing the fluorophore DCF. Briefly, cells were seeded in black-edge clear bottom 96-well plates. After reaching 70% confluence, medium was changed and cells were incubated with 20 μM DCFH-DA dissolved in medium containing 0.5% FBS. After 1 h pre-incubation to allow DCFH-DA uptake, treatments were added to its respective final concentrations and DCF fluorescence was monitored at 0.5, 1, 3, 8, 12, 16 and 24 h in a fluorescence reader (Ex/Em=485/532 nm). Hydrogen peroxide was used as a positive control and N-acetylcysteine (NAC), GSH-ethyl-ester (GSH-E) and Trolox were used as antioxidant standards. As a control, at the end of 24 h, cell viability was assessed and compared to wells in the absence of DCFH-DA.

[6] = MDA-MB231, pre-incubation with inhibitor

Structure (SMILES)	effect on MMS-induced activation of NFκB reporter [1, 6]	effect on MMS-induced activation of AP-1 reporter [2, 6]	effect on MMS-induced MAPK phosphorylation ([3]; MDA-MB231 cells)	effect on MMS/alkylation-induced IL8, MMP1, MMP3 and PGE2 secretion and COX-2 (IL8, MMP1, MMP3 and PGE2; MDA-MB231, 12 h)	effect on viability at low concentrations ([4]; 1 to 5 μM, presence or absence of alkylating agents)	concentration with non-selective cytotoxicity ([4]; breast cell lines and MEFs, GSH depletion, aberrant ROS)	viability at higher levels ([4]; higher levels of sorafenib)	increase in ROS [5]	activation of NFκB luciferase reporter ([1]; alkylating agent alone)	activation of AP-1 luciferase reporter ([2]; alkylating agent alone)	phosphorylation of MAPK ([3]; MDA-MB231 and MEF)	production of IL-8, MMP-1 and MMP-3 (IL8, MMP1, MMP3 and PGE2; MDA-MB231 culture medium)	prostaglandin E2 (PGE2) in culture medium and COX-2 protein in lysates (IL8, MMP1, MMP3 and PGE2; human cancer cells, 12 h)
CNC(=O)c1cc(Oc2ccc(NC(=O)Nc3ccc(Cl)c(C(F)(F)F)c3)cc2)ccn1 [sorafenib, 4-[4-[[4-chloro-3-(trifluoromethyl)phenyl]carbamoylamino]phenoxy]-N-methyl-pyridine-2-carboxamide]	strong inhibitory effects on both promoters; also recorded: blocked NFκB and AP-1 promoter activation	strong inhibitory effects on both promoters; also recorded: blocked NFκB and AP-1 promoter activation	blocked both MMS-induced phosphorylation of ERK1/2 and JNK1/2 as well as basal ERK1/2	exerted the strongest effect in blocking alkylation-induced IL8, COX-2/PGE2, MMP1 and 3	did not affect MMS/4-HC-induced losses in cell viability	≥ 20 µM	non-selective detriment to both cancer cells and MEFs	–	–	–	–	–	–
COS(C)(=O)=O [MMS, methyl-methanesulfonate]	–	–	–	–	–	–	–	1.5 fold	activated both NFκB and AP-1 luciferase reporter constructs	activated both NFκB and AP-1 luciferase reporter constructs	increased phosphorylation of the three MAPK	enhances the production of MMP1, MMP3 and IL8	increased levels of prostaglandin E2 (PGE2)
